Source: US20100316626A1, “METHODS FOR TREATMENT AND DIAGNOSIS OF PSYCHIATRIC DISORDERS” (THE GOVERNMENT OF THE UNITED STATES OF AMERICA AS …, priority 2006, published 2010)
pIC50, pKd: −log10 of the molar value.

How the values were obtained:
[1] = tested on: LTP at Schaffer collateral-CA1 synapses; test: LTP and LTP depotentiation at Schaffer collateral-CA1 synapses in acute hippocampal slices; type: cell-based, mouse; details: for block of the effects of NRG-1β on LTP by ErbB RTK inhibitors: inhibitor 10 μM applied 10 min prior to NRG-1, FIG. 3D
Description: (§1) Acute mouse hippocampal slice preparation: Hippocampal slices from 4 to 5 week old C57BL/6 mice were prepared in ice-cold artificial cerebrospinal fluid (ACSF) and cut on a 1000PLUS Vibratome (VIBRATOME, St. Louis, USA) to a thickness of ˜300 μm.
Electrophysiological recordings in mouse hippocampal slices: A single slice was transferred to a submerged recording chamber continuously perfused at a flow rate of 2 mL/min (30° C.) with recording ACSF (same as cutting ACSF minus the ascorbate, myo-inositol and pyruvate). Recordings were performed in 10 μM bicuculline (Tocris, USA) to block inhibitory activity. […] A borosilicate two-barrel stimulation electrode (World Precision Instruments, Sarasota, Fla.) with a silver wire (A-M Systems, Carlsberg, Wash.) was filled with oxygenated ACSF recording solution and placed in the stratum radiatum to stimulate the Schaffer collateral/commissural fibers at 0.05 Hz (0.1 msec, 20-40 μA) via a stimulus isolator (A365, World Precision Instruments, Sarasota, Fla.). Data were collected with a Multiclamp 700A amplifier (Axon Instrument, Foster city, CA). The recordings were digitized at a sampling rate of 10 kHz and filtered at 3 kHz. Baseline fEPSP slopes were set to 40-50% of maximum response. Baseline recordings of at least 10 min were obtained once stable basal transmission was observed. LTP was induced using a theta burst stimulation (TBS) protocol that consisted of 5 trains delivered at 0.2 Hz. […] To measure the AMPAR or the NMDAR components of evoked EPSCs, voltage-clamp recordings from CA1 pyramidal neurons were performed at holding potentials of −70 mV to measure the AMPAR component (10 EPSCs during 1 min) or at +40 mV to measure the NMDAR component. The AMPAR or NMDAR mediated EPSCs were measured 5 min prior to delivering the TBS, at approximately 20 min after inducing LTP (when the response stabilized), and at 10 and 40 min after commencing NRG-1β1 perfusion. In other experiments NMDAR EPSCs were recorded in potentiated slices prior to and after NRG-1 treatment at +40 mV (plus […] CNQX) to inhibit residual AMPAR currents. Paired-pulse facilitation was analyzed in whole-cell current-clamp recordings with inter-pulse intervals set to 50, 100, 150 and 200 msec.
Peptides corresponding to the splice variants of the EGF-like domains of NRG-1β1 and NRG-1α2 were dissolved in recording ACSF solution to a final concentration 0.1 or 1 nM. NRG was delivered for 10 min in external recording ACSF solution 20, 30 or 50 min following TBS. The ErbB receptor inhibitors PD158780 (10 μM) and PD168393 (10 μM) were diluted in ACSF solution and applied to the slices 10 min prior to NRG-1 addition to ensure diffusion into the cell and efficient receptor inhibition. […] Data were analyzed for significance using the Student's t-test. […]

[2] = tested on: basal synaptic transmission in hippocampal slices; test: Basal synaptic transmission in acute hippocampal slices (field recordings); type: cell-based, mouse; details: D2-selective inhibitors perfused in hippocampal slices; FIG. 11A
Description: as §1
Electrophysiological recordings in mouse hippocampal slices: A single slice was transferred to a submerged recording chamber continuously perfused at a flow rate of 2 mL/min (30° C.) with recording ACSF (same as cutting ACSF minus the ascorbate, myo-inositol and pyruvate). Recordings were performed in 10 μM bicuculline (Tocris, USA) to block inhibitory activity. […] The AMPAR or NMDAR mediated EPSCs were measured 5 min prior to delivering the TBS, at approximately 20 min after inducing LTP (when the response stabilized), and at 10 and 40 min after commencing NRG-1β1 perfusion. In other experiments NMDAR EPSCs were recorded in potentiated slices prior to and after NRG-1 treatment at +40 mV (plus […] CNQX) to inhibit residual AMPAR currents. Paired-pulse facilitation was analyzed in whole-cell current-clamp recordings with inter-pulse intervals set to 50, 100, 150 and 200 msec.
Peptides corresponding to the splice variants of the EGF-like domains of NRG-1β1 and NRG-1α2 were dissolved in recording ACSF solution to a final concentration 0.1 or 1 nM. […] Data were analyzed for significance using the Student's t-test. […]

[3] = tested on: A431, SK-BR-3 and MDA-MB-453 cells; details: cited from earlier work
ErbB receptors [4] = details: A431, SK-BR-3 and MDA-MB-453 cells; read-out: IC50 for block of ErbB phosphorylation; cited from earlier work
[5] = tested on: surface seGFP-GluR1 AMPA receptors; test: Live imaging of surface seGFP-GluR1 in transfected dissociated hippocampal neurons; type: cell-based, rat; details: PD158780 5 min before and during NRG-1; FIG. 6A
Description: Dissociated hippocampal cultures and chemLTP induction: Hippocampal neuronal cultures from E19 rat pups were prepared as reported previously. C. S. Herrmann et al., Clin Neurophysiol 116: 2719, 2005; A. Fisahn, et al., Nature 394: 186, 1998. Neurons were plated on 12 mm glass coverslips in 24 well plates at a density of 50,000 cells/well. ChemLTP was induced in cultures essential as described previously with minor modifications (Liao et al., 2001; Lu et al., 2001). Briefly, cells grown for 5 days in vitro (DIV5) were switched to medium containing 200 μM APV and maintained in Neurobasal media supplemented with B-27 (Invitrogen) until DIV18 to DIV22. […]
Live imaging in transfected hippocampal neurons of surface seGFP-tagged GluR1 AMPARs. […] Cells were perfused with […] glycine-containing medium used to induce chemLTP prior to capturing images and recorded for 4 min. […] Immediately after quenching with acidic MES buffer, cultures were switched back to 200 μM glycine in HBBSS (pH 7.4) for 2 min to recover the fluorescence. […] Images were detected with a cooled CCD camera (10 mW output, 12 bits, 1344×1024 pixels, Hamamatsu Orca ER) using 400 msec of exposure and 2×2 binning. Fluorescence was determined in 20-μm segments of neuronal processes that were at least 10 μm removed from the neuronal soma. […] Significance was evaluated by 1-way-ANOVA.

ErbB receptors [6] = details: cited from earlier work
PDGF receptor = details: at μM concentrations; cited from earlier work
FGF receptor = details: at μM concentrations; cited from earlier work

SMILES	effect on NRG-1-evoked LTP depotentiation ([1]; 50 nM, FIG. 11C)	effect on basal synaptic transmission [2]	block of the effects of NRG-1β on LTP by ErbB RTK inhibitors [1]	effect on LTP depotentiation elicited by TPS ([1]; two-pathway approach, FIG. 4C,D)	concentration that blocks proliferation [3] [µM]	pIC50 (ErbB receptors [4])	block of NRG-1-induced internalization of seGFP-GluR1 [5]	dissociation rate and autophosphorylation inhibition of the receptors (ErbB receptors [6])	pKd (ErbB receptors [6]; reconstituted receptors in vitro, read-out: affinities (binds competitively with ATP in the pocket))	cross-reactivity with PDGF receptor (PDGF receptor)	cross-reactivity with FGF receptor (FGF receptor)
Clc1ccc(N2CCN(Cc3c[nH]c4ncccc34)CC2)cc1 [L745870]	prevent NRG-1-evoked LTP depotentiation	no effect	–	–	–	–	–	–	–	–	–
CNc1cc2c(Nc3cccc(Br)c3)ncnc2cn1 [PD158780, 4-[(3-Bromophenyl)amino]-6-(methylamino)-pyrido[3,4-d]pyridimine]	–	–	completely blocked	block LTP depotentiation	0.1 to 1	7.30 to 7.82	completely blocked	extremely slow (several hours)	9.00 to 10.00	no cross-reactivity	no cross-reactivity
C=CC(=O)Nc1ccc2ncnc(Nc3cccc(Br)c3)c2c1 [PD168393, 4-[3(Bromophenyl)amino]-6-acrylamidoquinazoline]	–	–	completely blocked	–	–	–	–	–	–	–	–
